Results from US6723364B1, “Fog treatment method using a liquid composition for treating fruits and vegetables and implementing device” (Xeda International, priority 1998, dated 2004).

Columns and labels:
Type in all cases: cell-based
[1] = test system: Botrytis cinerea; assay: Germination of the spores in vitro; details: BC
Protocol: (§1) The activity of eugenol and of isoeugenol on the germination of the spores was evaluated in vitro and compared with that of other terpenes.
(§2) The procedure of Example 4 is used to do this, except that the concentration of eugenol and of isoeugenol was set at x μg/ml in the culture media used and that 50 μl of a suspension of spores, adjusted to 100,000 spores/ml, are deposited in each Petri dish.
(§3) The same experiment was carried out starting with a terpene-free culture medium (control test).
(§4) The results were evaluated using the following assessment criteria:
(§5) +: considerable reduction in the level of spores germinated
(§6) The results obtained for 3 different concentrations of terpenes in the culture medium, namely 40 μg/ml, 80 μg/ml and 1280 μg/ml, are listed in Tables 4, 5 and 6.

[2] = test system: Alternaria alternata; assay: Germination of the spores in vitro; details: AA;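 further: ++ germination like control and 0 no spores germinated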
Protocol: as §1, §2, §3, §4, §5, §6

[3] = test system: Phlyctaena vagabonda (“Gloeosporium”); assay: Germination of the spores in vitro; details: PV;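 further: ++ germination like control and 0 no spores germinated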
Protocol: as §1, §2, §3, §4, §5, §6

[4] = test system: Fusarium oxysporum; assay: Germination of the spores in vitro; details: FO;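 further: ++ germination like control and 0 no spores germinated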
Protocol: as §1, §2, §3, §4, §5, §6

[5] = test system: Penicillium expansum; assay: Germination of the spores in vitro; details: PE;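 further: ++ germination like control and 0 no spores germinated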
Protocol: as §1, §2, §3, §4, §5, §6

[6] = test system: Phytophtora parasitica; assay: Germination of the spores in vitro; details: PhP
Protocol: as §1, §2, §3, §4, §5, §6

[7] = test system: Penicillium digitatum; assay: Germination of the spores in vitro; details: PD
Protocol: as §1, §2, §3, §4, §5, §6

[8] = test system: Geocrichum candidum; assay: Germination of the spores in vitro; details: GC
Protocol: as §1, §2, §3, §4, §5, §6

[9] = test system: spores; assay: Germination of the spores in vitro, summary over the fungi tested; details: summary of Tables 4 to 6
Protocol: as §1, §2, §3, §6
A concentration of 40 μg/ml is sufficient to inhibit the germination of the spores.

SMILES | germination of the spores ([1]; x = 40 μg/ml) | germination of the spores ([1]; x = 80 μg/ml) | germination of the spores ([1]; x = 1280 μg/ml) | germination of the spores ([2]; x = 40 μg/ml) | germination of the spores ([2]; x = 80 μg/ml) | germination of the spores ([2]; x = 1280 μg/ml) | germination of the spores ([3]; x = 40 μg/ml) | germination of the spores ([3]; x = 80 μg/ml) | germination of the spores ([3]; x = 1280 μg/ml) | germination of the spores ([4]; x = 40 μg/ml) | germination of the spores ([4]; x = 80 μg/ml) | germination of the spores ([4]; x = 1280 μg/ml) | germination of the spores ([5]; x = 40 μg/ml) | germination of the spores ([5]; x = 80 μg/ml) | germination of the spores ([5]; x = 1280 μg/ml) | germination of the spores ([6]; x = 40 μg/ml) | germination of the spores ([6]; x = 80 μg/ml) | germination of the spores ([6]; x = 1280 μg/ml) | germination of the spores ([7]; x = 40 μg/ml) | germination of the spores ([7]; x = 80 μg/ml) | also measured
C=C(C)C1CC=C(C)C(=O)C1 (centres unmarked) [CARVONE, carvone] | + | 0 | 0 | + | 0 | 0 | + | 0 | 0 | + | 0 | 0 | + | 0 | 0 | 0 | 0 | 0 | + | 0 | germination of the spores ([7]; x = 1280 μg/ml): 0; germination of the spores ([8]; x = 40 μg/ml): +; germination of the spores ([8]; x = 80 μg/ml): 0; germination of the spores ([8]; x = 1280 μg/ml): 0
CC12CCC(CC1)C(C)(C)O2 [EUCALYPTOL, eucalyptol] | ++ | ++ | 0 | ++ | ++ | 0 | ++ | + | 0 | ++ | ++ | 0 | + | + | + | ++ | + | 0 | + | + | germination of the spores ([7]; x = 1280 μg/ml): +; germination of the spores ([8]; x = 40 μg/ml): ++; germination of the spores ([8]; x = 80 μg/ml): +; germination of the spores ([8]; x = 1280 μg/ml): 0
C=CCc1ccc(O)c(OC)c1 [EUGENOL, eugenol] | 0 | 0 | 0 | 0 | 0 | 0 | 0 | 0 | 0 | 0 | 0 | 0 | 0 | 0 | 0 | 0 | 0 | 0 | 0 | 0 | concentration sufficient to inhibit the germination of the spores [9]: 40 µg/mL; germination of the spores ([7]; x = 1280 μg/ml): 0; germination of the spores ([8]; x = 40 μg/ml): 0; germination of the spores ([8]; x = 80 μg/ml): 0; germination of the spores ([8]; x = 1280 μg/ml): 0
CC=Cc1ccc(O)c(OC)c1 [ISOEUGENOL, isoeugenol] | ++ | 0 | 0 | 0 | 0 | 0 | 0 | 0 | 0 | 0 | 0 | 0 | 0 | 0 | 0 | 0 | 0 | 0 | 0 | 0 | concentration sufficient to inhibit the germination of the spores [9]: 40 µg/mL; germination of the spores ([7]; x = 1280 μg/ml): 0; germination of the spores ([8]; x = 40 μg/ml): 0; germination of the spores ([8]; x = 80 μg/ml): 0; germination of the spores ([8]; x = 1280 μg/ml): 0
C=CCc1ccc2c(c1)OCO2 [SAFROLE, safrole] | + | 0 | 0 | ++ | + | 0 | + | + | 0 | ++ | + | 0 | + | + | + | 0 | 0 | 0 | + | + | germination of the spores ([7]; x = 1280 μg/ml): 0; germination of the spores ([8]; x = 40 μg/ml): ++; germination of the spores ([8]; x = 80 μg/ml): +; germination of the spores ([8]; x = 1280 μg/ml): 0
